Literature values in patent US11129554B2, “Sweat monitoring and control of drug delivery” (University Of Cincinnati, priority 2014, dated 2021).

Experiments:
[1] = tested on: alpha-blocking
[2] = tested on: beta-adrenoceptors
[3] = in vivo
[4] = dye clearance tests

Compound | beta-blocking activity [2] | further results
COc1ccccc1OCCNCC(O)COc1cccc2[nH]c3ccccc3c12 (single isomer, unassigned) [Carvedilol R(+) isomer, Carvedilol] | – | alpha-blocking activity [1]: approximately equally alpha-blocking potency
CC(C)NC[C@H](O)COc1cccc2ccccc12 [1-Propranolol] | has beta-adrenoceptors blocking action | –
COc1ccccc1OCCNCC(O)COc1cccc2[nH]c3ccccc3c12 (stereo not drawn) [Carvedilol S(−) isomer, Carvedilol] | nonselective beta-adrenoceptor blocker | alpha-blocking activity [1]: approximately equally alpha-blocking potency
COc1ccc2c(c1)[C@]13CCCC[C@@H]1[C@H](C2)N(C)CC3 [DM, Dextromethorphan] | – | half-life [3]: 2 to 4 h
CC(CCc1ccccc1)NCC(O)c1ccc(O)c(C(N)=O)c1 [Labetalol (R, R) isomer, Labetalol] | potent beta-blocker | –
CC(CCc1ccccc1)NCC(O)c1ccc(O)c(C(N)=O)c1 [Labetalol (R, S) isomer, Labetalol] | relatively inactive | –
CC(CCc1ccccc1)NCC(O)c1ccc(O)c(C(N)=O)c1 [Labetalol (S, R) isomer, Labetalol] | – | alpha-blocking activity [1]: potent alpha-blocker
CC(CCc1ccccc1)NCC(O)c1ccc(O)c(C(N)=O)c1 [Labetalol (S, S) isomer, Labetalol] | relatively inactive | –
OC(CNCC(O)C1CCc2cc(F)ccc2O1)C1CCc2cc(F)ccc2O1 (stereo not shown) [Nebivolol] | highly selectively beta-1-blocking effects | –
CC(C)NCC(O)c1ccc(NS(C)(=O)=O)cc1 [Sotalol D-isomer, Sotalol] | no beta-blocking activity | –
CC(C)NCC(O)c1ccc(NS(C)(=O)=O)cc1 [Sotalol L-isomer, Sotalol] | has beta-blocking activity | –
CN1C(=O)CC[C@H]1c1cccnc1 [cotinine] | – | half-life [3]: about 20 hours
CC(C)NC[C@@H](O)COc1cccc2ccccc12 [d-propranolol] | inactive | –
S-Timolol | – | alpha-blocking activity [1]: more a potent alpha-blocker than R-timolol
carboxyethyl-hydroxychroman [CEHC] | – | resolution of excretion in sweat [4]: 2 to 3 min
